Results reported in paper PMC6582486, “Stapled EGFR peptide reduces inflammatory breast cancer and inhibits additional HER-driven models of cancer” (Journal of Translational Medicine, 2019).
Like-named read-outs stand apart in the source and are kept apart here. Where a SMILES comes first, the peptide text is derived from it. Bridges are numbered along the chain shown (N, C = ends). [ ]: non-standard residue; d: D form. R8 = C=CCCCCCC[C@@](C)(N)C(=O)O; S5 = C=CCCC[C@](C)(N)C(=O)O

Test: Plasma concentration after tail-vein injection (toxicokinetics);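 for SAH-EJ1 concentration in plasma, average: blood sampled on day 1 after the tail-vein injection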
Format: in vivo, CD-1 mice
Conditions: for level at 0.5 h / level at 1 h: average ± SD, read-out: SAH-EJ1 concentration in plasma, average; for time by which peptide was not detectable in plasma: highest body weight dosage
Description: Toxicology was performed by IITRI. The study was conducted in compliance with the US Food and Drug Administration (FDA) good laboratory practice (GLP) Regulations (Code of Federal Regulations Title 21 Part 58) to evaluate the toxicokinetics, local tolerability, immunogenicity, and potential toxicity of SAH5-EJ1 following three times per week intravenous (IV) dosing for 28 days in mice. Male and female CD-1 IGS [Crl:CD1(ICR)] mice (135 per sex) were received from Wilmington, MA-based Charles River Laboratories, Inc.’s Kingston facility (Stone Ridge, NY).

CC[C@H](C)[C@H](NC(=O)[C@H](Cc1c[nH]cn1)NC(=O)[C@H](CCCNC(=N)N)NC(=O)[C@H](CCCNC(=N)N)NC(=O)[C@H](CCCNC(=N)N)NC(=O)[C@H](CCSC)NC(=O)[C@H](Cc1ccccc1)NC(=O)[C@H](C)NC(=O)[C@H](CCCNC(=N)N)NC(=O)[C@H](C)NC(=O)[C@H](CCC(N)=O)NC(=O)[C@H](CCCNC(=N)N)NC(=O)[C@H](C)NC(=O)[C@H](C)NC(=O)[C@H](C)NC(=O)[C@H](CCCNC(=N)N)NC(=O)[C@H](C)NC(=O)[C@@H](N)Cc1ccc(O)cc1)C(=O)N[C@H](C(=O)N[C@@H](CCCNC(=N)N)C(=O)N[C@@H](CCCCN)C(=O)N[C@@H](CCCNC(=N)N)C(=O)N[C@]1(C)CCCCCCC=CCCC[C@@](C)(C(=O)N[C@@H](CCCNC(=N)N)C(=O)N[C@@H](CCC(=O)O)C(N)=O)NC(=O)[C@H](CCC(N)=O)NC(=O)[C@H](CC(C)C)NC(=O)[C@H](CC(C)C)NC(=O)[C@H](CCCNC(=N)N)NC(=O)[C@H](CCCNC(=N)N)NC(=O)[C@H](CC(C)C)NC1=O)C(C)C [SAH5-EJ1] (H-YARAAARQARAFMRRRHIVRKR[R8]LRRLLQ[S5]RE-NH2; staple 23-30)
level at 0.5 h (CD-1, mouse, plasma, female, 10 mg/kg IV, day 1, 0.5 h): 0.562 ± 0.047 µg/mL | level at 1 h (CD-1, mouse, plasma, female, 10 mg/kg IV, day 1, 1 h): 0.542 ± 0.033 µg/mL | level at 0.5 h (CD-1, mouse, plasma, female, 15 mg/kg IV, day 1, 0.5 h): 0.554 ± 0.064 µg/mL | level at 1 h (CD-1, mouse, plasma, female, 15 mg/kg IV, day 1, 1 h): 0.569 ± 0.027 µg/mL | level at 0.5 h (CD-1, mouse, plasma, male, 10 mg/kg IV, day 1, 0.5 h): 0.638 ± 0.11 µg/mL | level at 1 h (CD-1, mouse, plasma, male, 10 mg/kg IV, day 1, 1 h): 0.665 ± 0.15 µg/mL | level at 0.5 h (CD-1 IGS [Crl:CD1(ICR)], mouse, plasma, female, 5 mg/kg IV, day 1, 0.5 h): 0.569 ± 0.019 µg/mL | level at 1 h (CD-1 IGS [Crl:CD1(ICR)], mouse, plasma, female, 5 mg/kg IV, day 1, 1 h): 0.529 ± 0.03 µg/mL | level at 0.5 h (CD-1 IGS [Crl:CD1(ICR)], mouse, plasma, male, 5 mg/kg IV, day 1, 0.5 h): 1.02 ± 0.35 µg/mL | level at 1 h (CD-1 IGS [Crl:CD1(ICR)], mouse, plasma, male, 5 mg/kg IV, day 1, 1 h): 0.576 ± 0.039 µg/mL | level at 0.5 h (CD-1 IGS [Crl:CD1(ICR)], mouse, plasma, male, 15 mg/kg IV, day 1, 0.5 h): 0.901 ± 0.16 µg/mL | level at 1 h (CD-1 IGS [Crl:CD1(ICR)], mouse, plasma, male, 15 mg/kg IV, day 1, 1 h): 0.657 ± 0.037 µg/mL | level at 2 h (CD-1 IGS [Crl:CD1(ICR)], plasma, male, 15 mg/kg IV, day 1, 2 h, mouse 2 of 3, read-out: SAH-EJ1 concentration in plasma): 0.551 µg/mL | time by which peptide was not detectable in plasma (female mice): ≤ 2 h | SAH-EJ1 concentration in plasma (female, 5 mg/kg IV, day 1, 1 h, mouse 1 of 3): BQL (BQL represents below quantifiable limits (0.5 µg/mL)) | SAH-EJ1 concentration in plasma (female, 5 mg/kg IV, day 1, 2 h, mouse 1 of 3): BQL (BQL represents below quantifiable limits (0.5 µg/mL)) | SAH-EJ1 concentration in plasma (female, 5 mg/kg IV, day 1, 2 h, mouse 2 of 3): BQL (BQL represents below quantifiable limits (0.5 µg/mL)) | SAH-EJ1 concentration in plasma (female, 5 mg/kg IV, day 1, 2 h, mouse 3 of 3): BQL (BQL represents below quantifiable limits (0.5 µg/mL)) | SAH-EJ1 concentration in plasma (female, 5 mg/kg IV, day 1, 4 h, mouse 1 of 3): BQL (BQL represents below quantifiable limits (0.5 µg/mL)) | SAH-EJ1 concentration in plasma (female, 5 mg/kg IV, day 1, 4 h, mouse 2 of 3): BQL (BQL represents below quantifiable limits (0.5 µg/mL)) | SAH-EJ1 concentration in plasma (female, 5 mg/kg IV, day 1, 4 h, mouse 3 of 3): BQL (BQL represents below quantifiable limits (0.5 µg/mL)) | SAH-EJ1 concentration in plasma (female, 5 mg/kg IV, day 1, 8 h, mouse 1 of 3): BQL (BQL represents below quantifiable limits (0.5 µg/mL)) | SAH-EJ1 concentration in plasma (female, 5 mg/kg IV, day 1, 8 h, mouse 2 of 3): BQL (BQL represents below quantifiable limits (0.5 µg/mL)) | SAH-EJ1 concentration in plasma (female, 5 mg/kg IV, day 1, 8 h, mouse 3 of 3): BQL (BQL represents below quantifiable limits (0.5 µg/mL)) | SAH-EJ1 concentration in plasma (female, 5 mg/kg IV, day 1, 24 h, mouse 1 of 3): BQL (BQL represents below quantifiable limits (0.5 µg/mL)) | SAH-EJ1 concentration in plasma (female, 5 mg/kg IV, day 1, 24 h, mouse 2 of 3): BQL (BQL represents below quantifiable limits (0.5 µg/mL)) | SAH-EJ1 concentration in plasma (female, 5 mg/kg IV, day 1, 24 h, mouse 3 of 3): BQL (BQL represents below quantifiable limits (0.5 µg/mL)) | SAH-EJ1 concentration in plasma (female, 10 mg/kg IV, day 1, 1 h, mouse 2 of 3): BQL (BQL represents below quantifiable limits (0.5 µg/mL)) | SAH-EJ1 concentration in plasma (female, 10 mg/kg IV, day 1, 2 h, mouse 1 of 3): BQL (BQL represents below quantifiable limits (0.5 µg/mL)) | SAH-EJ1 concentration in plasma (female, 10 mg/kg IV, day 1, 2 h, mouse 2 of 3): BQL (BQL represents below quantifiable limits (0.5 µg/mL)) | SAH-EJ1 concentration in plasma (female, 10 mg/kg IV, day 1, 2 h, mouse 3 of 3): BQL (BQL represents below quantifiable limits (0.5 µg/mL)) | SAH-EJ1 concentration in plasma (female, 10 mg/kg IV, day 1, 4 h, mouse 1 of 3): BQL (BQL represents below quantifiable limits (0.5 µg/mL)) | SAH-EJ1 concentration in plasma (female, 10 mg/kg IV, day 1, 4 h, mouse 2 of 3): BQL (BQL represents below quantifiable limits (0.5 µg/mL)) | SAH-EJ1 concentration in plasma (female, 10 mg/kg IV, day 1, 4 h, mouse 3 of 3): BQL (BQL represents below quantifiable limits (0.5 µg/mL)) | SAH-EJ1 concentration in plasma (female, 10 mg/kg IV, day 1, 8 h, mouse 1 of 3): BQL (BQL represents below quantifiable limits (0.5 µg/mL)) | SAH-EJ1 concentration in plasma (female, 10 mg/kg IV, day 1, 8 h, mouse 2 of 3): BQL (BQL represents below quantifiable limits (0.5 µg/mL)) | SAH-EJ1 concentration in plasma (female, 10 mg/kg IV, day 1, 8 h, mouse 3 of 3): BQL (BQL represents below quantifiable limits (0.5 µg/mL)) | SAH-EJ1 concentration in plasma (female, 10 mg/kg IV, day 1, 24 h, mouse 1 of 3): BQL (BQL represents below quantifiable limits (0.5 µg/mL)) | SAH-EJ1 concentration in plasma (female, 10 mg/kg IV, day 1, 24 h, mouse 2 of 3): BQL (BQL represents below quantifiable limits (0.5 µg/mL)) | SAH-EJ1 concentration in plasma (female, 10 mg/kg IV, day 1, 24 h, mouse 3 of 3): BQL (BQL represents below quantifiable limits (0.5 µg/mL)) | SAH-EJ1 concentration in plasma (female, 15 mg/kg IV, day 1, 0.5 h, mouse 3 of 3): BQL (BQL represents below quantifiable limits (0.5 µg/mL)) | SAH-EJ1 concentration in plasma (female, 15 mg/kg IV, day 1, 1 h, mouse 2 of 3): BQL (BQL represents below quantifiable limits (0.5 µg/mL)) | SAH-EJ1 concentration in plasma (female, 15 mg/kg IV, day 1, 2 h, mouse 1 of 3): BQL (BQL represents below quantifiable limits (0.5 µg/mL)) | SAH-EJ1 concentration in plasma (female, 15 mg/kg IV, day 1, 2 h, mouse 2 of 3): BQL (BQL represents below quantifiable limits (0.5 µg/mL)) | SAH-EJ1 concentration in plasma (female, 15 mg/kg IV, day 1, 2 h, mouse 3 of 3): BQL (BQL represents below quantifiable limits (0.5 µg/mL)) | SAH-EJ1 concentration in plasma (female, 15 mg/kg IV, day 1, 4 h, mouse 1 of 3): BQL (BQL represents below quantifiable limits (0.5 µg/mL)) | SAH-EJ1 concentration in plasma (female, 15 mg/kg IV, day 1, 4 h, mouse 2 of 3): BQL (BQL represents below quantifiable limits (0.5 µg/mL)) | SAH-EJ1 concentration in plasma (female, 15 mg/kg IV, day 1, 4 h, mouse 3 of 3): BQL (BQL represents below quantifiable limits (0.5 µg/mL)) | SAH-EJ1 concentration in plasma (female, 15 mg/kg IV, day 1, 8 h, mouse 1 of 3): BQL (BQL represents below quantifiable limits (0.5 µg/mL)) | SAH-EJ1 concentration in plasma (female, 15 mg/kg IV, day 1, 8 h, mouse 2 of 3): BQL (BQL represents below quantifiable limits (0.5 µg/mL)) | SAH-EJ1 concentration in plasma (female, 15 mg/kg IV, day 1, 8 h, mouse 3 of 3): BQL (BQL represents below quantifiable limits (0.5 µg/mL)) | SAH-EJ1 concentration in plasma (female, 15 mg/kg IV, day 1, 24 h, mouse 1 of 3): BQL (BQL represents below quantifiable limits (0.5 µg/mL)) | SAH-EJ1 concentration in plasma (female, 15 mg/kg IV, day 1, 24 h, mouse 2 of 3): BQL (BQL represents below quantifiable limits (0.5 µg/mL)) | SAH-EJ1 concentration in plasma (female, 15 mg/kg IV, day 1, 24 h, mouse 3 of 3): BQL (BQL represents below quantifiable limits (0.5 µg/mL)) | time by which peptide was not detectable in plasma (male mice): ≤ 4 h | SAH-EJ1 concentration in plasma (male, 5 mg/kg IV, day 1, 1 h, mouse 3 of 3): BQL (BQL represents below quantifiable limits (0.5 µg/mL)) | SAH-EJ1 concentration in plasma (male, 5 mg/kg IV, day 1, 2 h, mouse 1 of 3): BQL (BQL represents below quantifiable limits (0.5 µg/mL)) | SAH-EJ1 concentration in plasma (male, 5 mg/kg IV, day 1, 2 h, mouse 2 of 3): BQL (BQL represents below quantifiable limits (0.5 µg/mL)) | SAH-EJ1 concentration in plasma (male, 5 mg/kg IV, day 1, 2 h, mouse 3 of 3): BQL (BQL represents below quantifiable limits (0.5 µg/mL)) | SAH-EJ1 concentration in plasma (male, 5 mg/kg IV, day 1, 4 h, mouse 1 of 3): BQL (BQL represents below quantifiable limits (0.5 µg/mL)) | SAH-EJ1 concentration in plasma (male, 5 mg/kg IV, day 1, 4 h, mouse 2 of 3): BQL (BQL represents below quantifiable limits (0.5 µg/mL)) | SAH-EJ1 concentration in plasma (male, 5 mg/kg IV, day 1, 4 h, mouse 3 of 3): BQL (BQL represents below quantifiable limits (0.5 µg/mL))
